Like-named read-outs stand apart in the source and are kept apart here.
Columns and labels:
[1] = cited from earlier work
[2] = at 37° C.; cited from earlier work
[3] = smoking a cigarette; cited from earlier work
[4] = pKa falling in interval 8-9.6; cited from earlier work

Compound: N[C@@H](Cc1c[nH]cn1)C(=O)O [Histidine]
- Solubility in water [1]: 43.5 g/kg

Compound: CC(C)[C@H](N)C(=O)O [Valine]
- Solubility in water ([1]; water): 88.5 g/kg

Compound: CC[C@H](C)[C@H](N)C(=O)O [Isoleucine]
- Solubility in water ([1]; water): 34.2 g/kg

Compound: CN1CCCC1c1cccnc1 (centres unmarked) [nicotine, 3-(1-methyl-2-pyrrolidinyl)pyridine]
- nicotine in the non-charged base form (assuming a pH of the saliva of 6.8): about 10%
- nicotine in the free readily absorbable base form (at a pH of 9.0): more than 90%
- pKa (acid-base equilibrium of nicotine) [2]: ~7.8
- time until nicotine reaches the brain after inhalation [3]: around ten

Compound: N[C@@H](CCC(=O)O)C(=O)O [Glutamic acid]
- pKa value (in interval 8-9.6) [4]: 9.58

Compound: N[C@@H](Cc1ccccc1)C(=O)O [Phenylalanine]
- pKa value (in interval 8-9.6) [4]: 9.09
- Solubility in water ([1]; water): 27.9 g/kg

Compound: CSCC[C@H](N)C(=O)O [Methionine]
- Solubility in water [1]: 56 g/kg

Compound: NCCCC[C@H](N)C(=O)O [Lysine]
- pKa value (in interval 8-9.6) [4]: 9.16
- Solubility in water [1]: Very soluble^a)b)

Compound: NC(=O)C[C@H](N)C(=O)O [Aspargine]
- pKa value (in interval 8-9.6) [4]: 8.73

Compound: NC(=O)CC[C@H](N)C(=O)O [Glutamine]
- Solubility in water ([1]; water): 42 g/kg

Compound: N[C@@H](CS(=O)(=O)O)C(=O)O [Cysteic acid]
- Solubility in water ([1]; water): Very soluble

Compound: CC(C)C[C@H](N)C(=O)O [Leucine]
- Solubility in water ([1]; water): 22.0 g/kg

From US20080286340A1, “Buffered nicotine containing products” (priority 2007, published 2008)
